Experimental data from patent US20240336565A1, “SOLID FORMS OF OSANETANT” (Acer Therapeutics, Inc., priority 2021, published 2024).
“Also recorded” adds a separate entry of the source.

Columns and labels:
[1] = Salt screen: XRPD of isolated solids after drying at 40° C. and at 40° C./75% RH; assay type: physicochemical
Summary of the method: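 Amorphous lyophilized osanetant (~20 mg) slurried with 1.05 mol eq. counterion in solvent, thermally cycled 5–40 °C at 0.1 °C/min overnight. Solids isolated by centrifugation and analysed by XRPD, then re-analysed after ~24 h drying at 40 °C and again after ~24 h at 40 °C/75% RH.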

[2] = Disproportionation study (stirring in water, XRPD, pH of liquor); assay type: physicochemical; conditions: 10 mg in 1 mL of water, 24 h at 25° C.
Experimental: After 24 h total, a white slurry was observed and was isolated by centrifugation. The solids were analyzed by XRPD. The pH of the filtered liquor was measured at 5.63. […] After 24 h total, a white slurry was observed and was isolated by centrifugation. The solids were analyzed by XRPD. The pH of the filtered liquor was measured (pH=5.09).

[3] = Comparative studies: 7-day stability; assay type: physicochemical
[4] = Hygroscopicity / dynamic vapor sorption (DVS); assay type: physicochemical
Experimental: The osanetant p-toluenesulfonic acid Form 1 solids consisted of aggregated crystals with an undefined morphology. Select peaks which can be used to characterize osanetant p-toluenesulfonic acid Form 1 include one or more of 11.4°2θ±0.2°2θ, 18.0°2θ±0.2°2θ, 19.0°2θ±0.2°2θ, 19.3°2θ±0.2°2θ, 19.8°2θ±0.2°2θ, or 21.1°2θ±0.2°2θ. In some embodiments, osanetant p-toluenesulfonic acid Form 1 is a monohydrate.

[5] = Long term stability: thermal stability of solids at 60° C.; assay type: physicochemical; conditions: solids, darkened oven at 60° C., up to 14 days
Experimental: (§1) Osanetant p-toluenesulfonic acid Form 1 and osanetant benzenesulfonic acid Form 1 were tested for long-term stability across a number of different conditions, as detailed below.
Thermal stability of solids at 60° C.—Osanetant p-toluenesulfonic acid Form 1 and osanetant benzenesulfonic acid Form 1 were stored in a darkened oven at 60° C. in glass vials. Samples were taken after T=1, 2, 4, 7, and 14 days storage. […] The purity of the resulting material is described in Table 41: […]

[6] = Long term stability: base (2M NaOH) at ambient temperature; assay type: physicochemical; conditions: 2M NaOH, dark, ambient, up to 14 days
Experimental: as §1
(§2) Base at Ambient Temperature—Osanetant p-toluenesulfonic acid Form 1 and osanetant benzenesulfonic acid Form 1 were prepared at an osanetant content 10 times the normal working concentration then added to HPLC vials containing 2M NaOH and stored in the dark at ambient laboratory conditions. Samples were diluted to 2 mg/mL for analysis and were taken after T=1, 2, 4, 7, and 14 days storage. […] The purity of the resulting material is described in Table 44: […]

[7] = Long term stability: base (2M NaOH) at 60° C.; assay type: physicochemical; conditions: 2M NaOH, 60° C., up to 14 days
Experimental: as §1
as §2, with “60° C.—Osanetant” for “Ambient Temperature—Osanetant”, “a darkened oven” for “the dark”, “60° C.” for “ambient laboratory conditions.”, “45:” for “44:”

[8] = Long term stability: oxidation (6% H2O2) at ambient temperature; assay type: physicochemical; conditions: 6% H2O2, dark, ambient, up to 14 days
Experimental: as §1
as §2, with “Oxidation” for “Base”, “Temperature-Osanetant” for “Temperature—Osanetant”, “6% H2O2” for “2M NaOH”, “46:” for “44:”

[9] = Long term stability: oxidation (6% H2O2) at 60° C.; assay type: physicochemical; conditions: 6% H2O2, 60° C., up to 14 days
Experimental: as §1
as §2, with “Oxidation” for “Base”, “60° C.—Osanetant” for “Ambient Temperature—Osanetant”, “6% H2O2” for “2M NaOH”, “a darkened oven” for “the dark”, “60° C.” for “ambient laboratory conditions.”, “47:” for “44:”

[10] = Solid form stability observations (scale up / polymorph work: drying, ambient conditions, aqueous media); assay type: physicochemical
Experimental: Two anhydrous forms of the osanetant p-toluenesulfonic acid were synthesized. […] Form 6, described below, was a stable anhydrous form, but hydrated in water and aqueous solvent mixtures.
Advantageously, Form 1 (hydrate) and Form 6 (anhydrous) were stable on drying. Form 1 re-hydrated at room temperature and pressure after KF analysis, when it was heated in an oven to remove the water.
The experiment was cooled to 5° C. at a rate of 0.1° C./min and stirred at 5° C. for 18 h. The slurry was isolated be Buchner filtration: 42.5 mm Ø grade 1 Whatman filter paper; fast Filtration (<30 s); the cake was washed with 1 mL of ethyl acetate; the isolated solids were dried at 40° C. under vacuum for 72 h. […]

[11] = Thermodynamic solubility in water and pH buffers

CC(=O)N(C)C1(c2ccccc2)CCN(CCC[C@]2(c3ccc(Cl)c(Cl)c3)CCCN(C(=O)c3ccccc3)C2)CC1.Cc1ccc(S(=O)(=O)O)cc1 [osanetant p-toluenesulfonic acid Form 1, (R)-N-(1-(3-(1-benzoyl-3-(3,4-dichlorophenyl)piperidin-3-yl)propyl)-4-phenylpiperidin-4-yl)-N-methylacetamide p-toluenesulfonic acid]
XRPD after drying at 40° C./75% RH ([1]; after 40° C. drying, dried at 40° C./75% RH for about 24 h, label = form after 40° C. drying): retained; also recorded: stable; also recorded: Form 1
XRPD after drying at 40° C. ([1]; isolated solids dried at 40° C. for about 24 h, label = wet form): retained; also recorded: Form 1
XRPD form / disproportionation after stirring in water [2]: no change in form; also recorded: did not disproportionate
pH of the filtered liquor [2]: 5.63
impurities on 7-day stability ([3]; 80° C.): increase in impurities
solid form on 7-day stability ([3]; 7 days, elevated temperature where stated): form was retained
physical stability ([3]; in slurry at various water activity and pH, and at 40° C./75% RH and 80° C.): physically stable
hygroscopicity / water loss on DVS analysis [4]: did not lose the water
weight gain (hygroscopicity) ([4]; at 80% RH): 0.2 wt. %
degradation on storage (purity) [5]: lack of degradation
degradation on storage (purity) [6]: lack of degradation
degradation on storage (purity) [7]: lack of degradation
degradation on storage (purity) [8]: lack of degradation
degradation on storage (purity) [9]: lack of degradation
form stability / re-hydration under ambient conditions ([10]; ambient conditions / room temperature and pressure): re-hydrated
dehydration temperature ([10]; dehydrates to Form 5): above 85 °C
form on drying ([10]; drying (40° C. under vacuum where stated)): stable; also recorded: no change
Solubility in water and pH buffers [11]: low
